Holding throughout (assay type): in vivo
Experiment [1] deals with Foxtail, Giant (giant foxtail, Setaria faberi). The experiment is described as follows: Test A1 postemergence, Foxtail, Giant. The conditions noted are these: for Plant response rating, Foxtail, Giant: Postemergence; for Foxtail, Giant plant response rating: 31 g ai/ha, postemergence. In short, it runs like this:
(§1)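 Both timings started from seed in a loam-sand blend. Preemergence pots got a directed soil application immediately; postemergence pots were sprayed when seedlings had one or two leaves and stood 2–10 cm. Each compound was prepared in a non-phytotoxic solvent plus surfactant.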

For experiment [2], the system named is blackgrass (Alopecurus myosuroides). The experiment is described as follows: Test A1 postemergence, blackgrass. The settings on record: 0 to 100 scale (0 no effect, 100 complete control); for Plant response rating, Blackgrass: Postemergence; for Blackgrass plant response rating: 31 g ai/ha, postemergence. In short, it runs like this: as §1
Experiment [3] deals with Oat, Wild (wild oat, Avena fatua). The experiment is described as follows: Test A1 preemergence, Oat, Wild. An outline of the steps: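 Seeds were first planted into a blend of loam soil and sand and given a preemergence directed soil spray. In parallel, pots of the same soil were sown for postemergence application once plants reached 2 to 10 cm and the one- to two-leaf stage. Both used surfactant-containing non-phytotoxic solvent formulations.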

The subject of experiment [4] is Ryegrass, Italian (Italian ryegrass, Lolium multiflorum). Briefly: Test A1 postemergence, Ryegrass, Italian. The conditions noted are these: for Plant response rating, Ryegrass, Italian: Postemergence; for Ryegrass, Italian plant response rating: 31 g ai/ha, postemergence. An outline of the steps: as §1
Setting [5] is: 125 g ai/ha, 0 to 100 scale (0 no effect, 100 complete control), 10 days.
Where [6] appears, read: 125 g ai/ha, 0 to 100 scale, 0 no effect, 100 complete control.
[7] abbreviates: 0 to 100 scale (0 no effect, 100 complete control).
The mark [8] stands for this setting: 31 g ai/ha, 0 to 100 scale (0 no effect, 100 complete control).

Consider eight compounds from patent US20230278972A1, “SUBSTITUTED HALOALKYL SULFONANILIDE HERBICIDES” (FMC Corporation, priority 2020, published 2023).

For `Cc1cc(C)c(N(COC(=O)C(C)(C)C)S(=O)(=O)C(F)(F)F)cc1N1CCC2(CCC(F)(F)CC2)C1=O` [Compound 397], the “Plant response rating, Foxtail, Giant” value stood at 20 in experiment [1] (setting [5]) and 70 in experiment [1] (500 g ai/ha, 0 to 100 scale). Further, the “Plant response rating, Blackgrass” value is 40 in experiment [2] (125 g ai/ha, 10 days) and 90 in experiment [2] (500 g ai/ha). For the same compound, the “Plant response rating, Oat, Wild” value in experiment [3] (setting [6]) came out at 20; in experiment [3] (500 g ai/ha, 0 to 100 scale (0 no effect, 100 complete control)) it was 90. Besides, the “Plant response rating, Ryegrass, Italian” value worked out at 50 in experiment [4] (setting [5]) and 80 in experiment [4] (500 g ai/ha, 0 to 100 scale).
As for `COC1CCC2(CC1)CCN(c1cc(NS(=O)(=O)C(F)(F)F)c(C)cc1C)C2=O` (stereo not drawn) [Compound 398], the “Foxtail, Giant plant response rating” value in experiment [1] (setting [7]) was found to be 20. Besides, the “Plant response rating, Foxtail, Giant” value in experiment [1] (setting [5]) is on record as 60. Further, the “Blackgrass plant response rating” value in experiment [2] worked out at 0. In experiment [2] (125 g ai/ha, 10 days), the “Plant response rating, Blackgrass” value is recorded as 30. In addition, the “Plant response rating, Oat, Wild” value in experiment [3] (setting [8]) was 20; in experiment [3] (setting [6]), 70. Moreover, the “Ryegrass, Italian plant response rating” value in experiment [4] (setting [7]) was 50. For the same compound, the “Plant response rating, Ryegrass, Italian” value in experiment [4] (setting [5]) stood at 90.
For `Cc1cc(C)c(N(S(=O)(=O)C(F)(F)F)S(=O)(=O)C(F)(F)F)cc1N1CCC2(CCC(C(F)(F)F)CC2)C1=O` (stereo not drawn) [Compound 399], in experiment [1] (setting [7]), the “Foxtail, Giant plant response rating” value worked out at 10. The “Plant response rating, Foxtail, Giant” value in experiment [1] (setting [5]) is 60. Besides, the “Blackgrass plant response rating” value in experiment [2] was found to be 40. In addition, the “Plant response rating, Blackgrass” value in experiment [2] (125 g ai/ha, 10 days) worked out at 90. The “Plant response rating, Oat, Wild” value in experiment [3] (setting [8]) is listed as 20; in experiment [3] (setting [6]), 40. The “Ryegrass, Italian plant response rating” value in experiment [4] (setting [7]) was found to be 0. The “Plant response rating, Ryegrass, Italian” value in experiment [4] (setting [5]) is reported as 70.
As to `Cc1cc(C)c(N2CCC3(CCC(C(F)(F)F)CC3)C2=O)cc1NS(=O)(=O)C(F)(F)F` (stereo not drawn) [Compound 400], in experiment [1] (setting [7]), the “Foxtail, Giant plant response rating” value is listed as 0. In addition, in experiment [1] (setting [5]), the “Plant response rating, Foxtail, Giant” value turned out to be 0. Further, in experiment [2], the “Blackgrass plant response rating” value is on record as 0. In experiment [2] (125 g ai/ha, 10 days), the “Plant response rating, Blackgrass” value is on record as 30. Further, the “Plant response rating, Oat, Wild” value in experiment [3] (setting [8]) stood at 50; in experiment [3] (setting [6]) it was 90. For the same compound, the “Ryegrass, Italian plant response rating” value in experiment [4] (setting [7]) was 0. In addition, the “Plant response rating, Ryegrass, Italian” value in experiment [4] (setting [5]) is listed as 0.
Turning to `Cc1cc(C)c(N(COC(=O)C(C)(C)C)S(=O)(=O)C(F)(F)F)cc1N1CCC2(CCC(C)CC2)C1=O` (stereo not drawn) [Compound 401], the “Foxtail, Giant plant response rating” value in experiment [1] (setting [7]) worked out at 0. In addition, in experiment [1] (setting [5]), the “Plant response rating, Foxtail, Giant” value is 60. Moreover, the “Blackgrass plant response rating” value in experiment [2] was 0. The “Plant response rating, Blackgrass” value in experiment [2] (125 g ai/ha, 10 days) amounted to 30. Besides, the “Plant response rating, Oat, Wild” value in experiment [3] (setting [8]) and in experiment [3] (setting [6]) was 0 in each case. Further, the “Ryegrass, Italian plant response rating” value in experiment [4] (setting [7]) was determined as 0. Moreover, in experiment [4] (setting [5]), the “Plant response rating, Ryegrass, Italian” value came to 0.
As to `Cc1cc(C)c(N2CCC3(CCC(C)CC3)C2=O)cc1NS(=O)(=O)C(F)(F)F` (stereo not drawn) [Compound 402], the “Foxtail, Giant plant response rating” value in experiment [1] (setting [7]) was 0. The “Plant response rating, Foxtail, Giant” value in experiment [1] (setting [5]) amounted to 20. In addition, in experiment [2], the “Blackgrass plant response rating” value was 0. Also, the “Plant response rating, Blackgrass” value in experiment [2] (125 g ai/ha, 10 days) stood at 0. Moreover, the “Plant response rating, Oat, Wild” value in experiment [3] (setting [8]) turned out to be 50; in experiment [3] (setting [6]) it was 70. The “Ryegrass, Italian plant response rating” value in experiment [4] (setting [7]) stood at 0. Also, in experiment [4] (setting [5]), the “Plant response rating, Ryegrass, Italian” value is 0.
For `Cc1cc(C)c(N(COC(=O)C(C)(C)C)S(=O)(=O)C(F)(F)F)cc1N1CCC2(CCC(C(F)(F)F)CC2)C1=O` (stereo not drawn) [Compound 403], in experiment [1] (setting [7]), the “Foxtail, Giant plant response rating” value came to 0. The “Plant response rating, Foxtail, Giant” value in experiment [1] (setting [5]) was determined as 0. Also, the “Blackgrass plant response rating” value in experiment [2] is on record as 0. For the same compound, in experiment [2] (125 g ai/ha, 10 days), the “Plant response rating, Blackgrass” value is on record as 0. In addition, the “Plant response rating, Oat, Wild” value in experiment [3] (setting [8]) is 0; in experiment [3] (setting [6]), 10. Moreover, the “Ryegrass, Italian plant response rating” value in experiment [4] (setting [7]) is 0. Besides, in experiment [4] (setting [5]), the “Plant response rating, Ryegrass, Italian” value turned out to be 0.
For `Cc1cc(C)c(N2Cc3cccc(C)c3C2=O)cc1NS(=O)(=O)Cl` [Compound 408], the “Foxtail, Giant plant response rating” value in experiment [1] (setting [7]) is listed as 90. The “Plant response rating, Foxtail, Giant” value in experiment [1] (setting [5]) amounted to 90. In addition, the “Blackgrass plant response rating” value in experiment [2] was 80. The “Plant response rating, Blackgrass” value in experiment [2] (125 g ai/ha, 10 days) is 90. For the same compound, the “Plant response rating, Oat, Wild” value in experiment [3] (125 g ai/ha, 0 to 100 scale (0 no effect, 100 complete control)) was 100. Moreover, in experiment [4] (setting [7]), the “Ryegrass, Italian plant response rating” value came out at 70. The “Plant response rating, Ryegrass, Italian” value in experiment [4] (setting [5]) stood at 80.
